Test results taken from patent US20060128695A1, “Cyclic nucleotide phosphodiesterase inhibitors, preparation and uses” (NEURO3D, priority 2002, published 2006).
Like-named read-outs stand apart in the source and are kept apart here.

Molecular target: T1, PDE2 (Bos taurus, UniProt P14099)
T1 construct: PDE2 was prepared from bovine endothelial cells by the same methods; endogenous in cells; host or cells: bovine endothelial cells
T1 sequence (P14099 1-921): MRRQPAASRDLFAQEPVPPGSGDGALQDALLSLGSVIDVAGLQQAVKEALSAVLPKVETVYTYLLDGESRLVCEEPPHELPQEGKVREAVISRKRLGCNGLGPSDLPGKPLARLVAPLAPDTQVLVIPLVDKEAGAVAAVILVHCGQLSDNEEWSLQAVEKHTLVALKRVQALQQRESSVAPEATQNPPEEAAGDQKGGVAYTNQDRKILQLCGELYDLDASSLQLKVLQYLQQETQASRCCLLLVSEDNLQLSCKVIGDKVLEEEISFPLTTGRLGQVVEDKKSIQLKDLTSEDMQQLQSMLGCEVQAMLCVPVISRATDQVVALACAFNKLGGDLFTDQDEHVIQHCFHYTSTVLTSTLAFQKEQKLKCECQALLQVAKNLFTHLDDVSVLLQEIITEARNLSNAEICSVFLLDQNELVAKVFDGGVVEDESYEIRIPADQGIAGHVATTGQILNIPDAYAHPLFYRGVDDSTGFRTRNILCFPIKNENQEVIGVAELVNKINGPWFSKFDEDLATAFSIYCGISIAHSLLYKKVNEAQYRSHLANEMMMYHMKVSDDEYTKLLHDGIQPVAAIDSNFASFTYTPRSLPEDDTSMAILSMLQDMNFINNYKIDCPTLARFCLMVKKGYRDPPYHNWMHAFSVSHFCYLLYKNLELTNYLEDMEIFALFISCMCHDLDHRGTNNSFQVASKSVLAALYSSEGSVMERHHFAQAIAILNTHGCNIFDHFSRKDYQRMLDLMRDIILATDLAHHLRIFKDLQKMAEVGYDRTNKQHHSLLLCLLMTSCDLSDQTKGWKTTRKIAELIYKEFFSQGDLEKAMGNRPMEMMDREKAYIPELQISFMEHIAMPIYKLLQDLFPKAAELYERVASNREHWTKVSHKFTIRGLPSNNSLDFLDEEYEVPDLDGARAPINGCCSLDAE
Assay: Inhibition of PDE2, radioenzymatic phosphodiesterase assay
Format: biochemical, bovine
Settings: for inhibition at 10 µM: read-out: PDE2 percentage inhibition at 10 μM

[1] = 10 μM test compound, PDE2 from bovine endothelial cells

SMILES | inhibition at 10 µM | further results
COc1cc2c(cc1OC)C(c1cccc(C(F)(F)F)c1)=NCC(=O)N2 [Compound 3d, 7,8-dimethoxy-[5-(3-trifluoromethyl)phenyl]-1,3-dihydro-2H-1,4-benzodiazepin-2-one] | – | PDE2 percentage inhibition at 10 μM [1]: 22%
COc1cc2c(cc1OC)N(C)C(=O)CN=C2c1cccc(C#N)c1 [Compound 4a, 3-(7,8-dimethoxy-1-methyl-2-oxo-2,3-dihydro-1H-1,4-benzodiazepin-5-yl)-benzonitrile] | – | IC50: 6.7 µM
COc1cc2c(cc1OC)N(Cc1ccc(Cl)cc1)C(=O)CN=C2c1cccc(C#N)c1 [Compound 4c, 3-[1-(4-chlorobenzyl)-7,8-dimethoxy-2-oxo-2,3-dihydro-1H-1,4-benzodiazepin-5-yl]-benzonitrile] | 35.3% | –
COc1cc2c(cc1OC)N(Cc1ccc(Cl)c(Cl)c1)C(=O)CN=C2c1cccc(C#N)c1 [Compound 4d, 3-[1-(3,4-chlorobenzyl)-7,8-dimethoxy-2-oxo-2,3-dihydro-1H-1,4-benzodiazepin-5-yl]-benzonitrile] | – | PDE2 percentage inhibition at 10 μM [1]: 47.6%
COc1ccc(CN2C(=O)CN=C(c3cccc(C#N)c3)c3cc(OC)c(OC)cc32)cc1 [Compound 4e, 3-[7,8-dimethoxy-l-(4-methoxybenzyl)-2-oxo-2,3-dihydro-1H-1,4-benzodiazepin-5-yl]-benzonitrile] | – | PDE2 percentage inhibition at 10 μM [1]: 13.9%
COc1cc2c(cc1OC)N(Cc1cccc(Cl)c1)C(=O)CN=C2c1cccc(C#N)c1 [Compound 4f, 3-[1-(3-chlorobenzyl)-7,8-dimethoxy-2-oxo-2,3-dihydro-1H-1,4-benzodiazepin-5-yl]-benzonitrile] | 17.1% | –
COc1cc2c(cc1OC)N(Cc1cccc(C(F)(F)F)c1)C(=O)CN=C2c1cccc(C#N)c1 [Compound 4g, 3-{7,8-dimethoxy-2-oxo-1-[3-(trifluoromethyl)benzyl]-2,3-dihydro-1H-1,4-benzodiazepin-5-yl]-benzonitrile] | 14.3% | –
COc1cc2c(cc1OC)N(Cc1ccccc1Cl)C(=O)CN=C2c1cccc(C#N)c1 [Compound 4h, 3-[1-(2-chlorobenzyl)-7,8-dimethoxy-2-oxo-2,3-dihydro-1H-1,4-benzodiazepin-5-yl]-benzonitrile] | 16% | –
COc1cc2c(cc1OC)N(Cc1ccc(C(F)(F)F)cc1)C(=O)CN=C2c1cccc(C#N)c1 [Compound 4i, 3-{7,8-dimethoxy-2-oxo-1-[4-(trifluoromethyl)benzyl]-2,3-dihydro-1H-1,4-benzodiazepin-5-yl}-benzonitrile] | 15.7% | –
COc1cc2c(cc1OC)N(CCc1ccccc1)C(=O)CN=C2c1cccc(C#N)c1 [Compound 4j, 3-[7,8-dimethoxy-2-oxo-1-(2-phenylethyl)-2,3-dihydro-1H-1,4-benzodiazepin-5-yl]-benzonitrile] | 5.6% | –
CCN1C(=O)CN=C(c2cccc(C#N)c2)c2cc(OC)c(OC)cc21 [Compound 4k, 3-(1-ethyl-7,8-dimethoxy-2-oxo-2,3-dihydro-1H-1,4-benzodiazepin-5-yl)benzonitrile] | 75.9% | –
CCCN1C(=O)CN=C(c2cccc(C#N)c2)c2cc(OC)c(OC)cc21 [Compound 4l, 3-(7,8-dimethoxy-1-propyl-2-oxo-2,3-dihydro-1H-1,4-benzodiazepin-5-yl)benzonitrile] | 72.1% | –
COc1cc2c(cc1OC)N(Cc1ccccc1)C(=O)CN=C2c1cccc(C#N)c1 [Compound 4m, 3-(1-benzyl-7,8-dimethoxy-2-oxo-2,3-dihydro-1H-1,4-benzodiazepin-5-yl)benzonitrile] | – | IC50: 1.5 µM
CCOC(=O)CN1C(=O)CN=C(c2cccc(C#N)c2)c2cc(OC)c(OC)cc21 [Compound 4n, Ethyl[5-(3-cyanophenyl)-7,8-dimethoxy-2-oxo-2,3-dihydro-1H-1,4-benzodiazepin-1-yl]acetate] | – | IC50: 3.7 µM
CCN1C(=O)CN=C(c2cccc(C(F)(F)F)c2)c2cc(OC)c(OC)cc21 [Compound 4q, 7,8-dimethoxy-1-ethyl-5-[3-(trifluoromethyl)phenyl]-1,3-dihydro-2H-1,4-benzodiazepin-2-one] | 32% | –
CCCN1C(=O)CN=C(c2cccc(C(F)(F)F)c2)c2cc(OC)c(OC)cc21 [Compound 4r, 5-[3-(trifluoromethyl)phenyl]-7,8-dimethoxy-1-n-propyl-1,3-dihydro-1,4-benzodiazepin-2-one] | 34% | –
COc1cc2c(cc1OC)N(Cc1ccccc1)C(=O)CN=C2c1cccc(C(F)(F)F)c1 [Compound 4s, 1-benzyl-5-[3-(trifluoromethyl)phenyl]-7,8-dimethoxy-1,3-dihydro-1,4-benzodiazepin-2-one] | 14% | –
COc1cc2c(c(-c3ccccc3)c1OC)C(c1cccc(C(N)=O)c1)=NCC(=O)N2C [Compound 5c, 3-(7,8-dimethoxy-1-methyl-2-oxo-6-phenyl-2,3-dihydro-1H-1,4-benzodiazepin-5-yl)benzamide] | 53.3% | –
COc1cc2c(c(Br)c1OC)N(C)C(=O)CN=C2c1cccc(C(N)=O)c1 [Compound 5d, 3-(9-bromo-7,8-dimethoxy-1-methyl-2-oxo-2,3-dihydro-1H-1,4-benzodiazepin-5-yl)benzamide] | – | inhibition at 10 µM [1]: 19.2%
COc1cc2c(cc1OC)C(c1cccc(C(N)=O)c1)=NCC(=O)N2 [Compound 5e, 3-(7,8-dimethoxy-2-oxo-2,3-dihydro-1H-1,4-benzodiazepin-5-yl)benzamide] | – | IC50: 6.6 µM
CCCN1C(=O)CN=C(c2cccc(C(N)=O)c2)c2cc(OC)c(OC)cc21 [Compound 5f, 3-(7,8-dimethoxy-1-propyl-2-oxo-2,3-dihydro-1H-1,4-benzodiazepin-5-yl)benzamide] | – | IC50: 12.6 µM
CCN1C(=O)CN=C(c2cccc(C(N)=O)c2)c2cc(OC)c(OC)cc21 [Compound 5g, 3-(1-ethyl-7,8-dimethoxy-2-oxo-2,3-dihydro-1H-1,4-benzodiazepin-5-yl)benzamide] | – | IC50: 24.6 µM
COc1cc2c(cc1OC)N(Cc1ccccc1)C(=O)CN=C2c1cccc(C(N)=O)c1 [Compound 5h, 3-(1-benzyl-7,8-dimethoxy-2-oxo-2,3-dihydro-1H-1,4-benzodiazepin-5-yl)benzamide] | 0% | –
CCOC(=O)CN1C(=O)CN=C(c2cccc(C(N)=O)c2)c2cc(OC)c(OC)cc21 [Compound 5i, Ethyl{5-[3-(aminocarbonyl)phenyl]-7,8-dimethoxy-2-oxo-2,3-dihydro-1H-1,4-benzodiazepin-1-yl}acetate] | 0% | –
COc1cc2c(cc1OC)N(C)C(=O)C(C)N=C2c1cccc(C(N)=O)c1 (stereo not shown) [Compound 5j, 3-(7,8-dimethoxy-1,3-dimethyl-2-oxo-2,3-dihydro-1H-1,4-benzodiazepin-5-yl) benzamide] | – | IC50: 4.5 µM
COc1cc2c(cc1OC)N(C)C(=O)C(Cc1ccc(Cl)c(Cl)c1)N=C2c1cccc(C(N)=O)c1 (stereo not shown) [Compound 5k, 3-[3-(3,4-dichlorobenzyl)-7,8-dimethoxy-1-methyl-2-oxo-2,3-dihydro-1H-1,4-benzodiazepin-5-yl]benzamide] | 67.8% | –
COc1ccc2c(c1)N(C)C(=O)CN=C2c1cccc(C(N)=O)c1 [Compound 5l, 3-(8-methoxy-1-methyl-2-oxo-2,3-dihydro-1H-1,4-benzodiazepin-5-yl)benzamide] | – | IC50: 14 µM
COc1cc2c(c(-c3ccccc3)c1OC)N(C)C(=O)CN=C2c1cccc(C(N)=O)c1 [Compound 5m, 3-(7,8-dimethoxy-1-methyl-2-oxo-9-phenyl-2,3-dihydro-1H-1,4-benzodiazepin-5-yl)benzamide] | 5.9% | –
